Laboratory results reported in publication PMC6572064, “Discovery of 2-(1-(3-(4-Chloroxyphenyl)-3-oxo- propyl)pyrrolidine-3-yl)-1H-benzo[d]imidazole-4-carboxamide: A Potent Poly(ADP-ribose) Polymerase (PARP) Inhibitor for Treatment of Cancer” (Molecules, 2019).
pIC50: −log10 of the molar value. Values joined by “and” are separate entries in the source; they are usually repeats but may differ in a detail not shown here. Equal entries are not always repeated. Where two headings read alike, the source gives them in different places.

Key:
[1] = system: CAPAN-1 (a BRCA-2-mutated pancreatic cancer cell line); experiment: Cell proliferation assay, three-day, CellTiter-Glo, CAPAN-1; format: cell-based; conditions: for inhibition at 0.00508 µM: CAPAN-1, Conc. 0.00508 uM; for inhibition at 0.0152 µM: CAPAN-1, Conc. 0.0152 uM; for inhibition at 0.0457 µM: CAPAN-1, Conc. 0.0457 uM; for inhibition at […]: CAPAN-1, Conc. 0.14 uM; for inhibition at 0.41 µM: CAPAN-1, Conc. 0.41 uM; for inhibition at 1.23 µM: CAPAN-1, Conc. 1.23 uM; for inhibition at 3.7 µM: CAPAN-1, Conc. 3.70 uM; for inhibition at 11.11 µM: CAPAN-1, Conc. 11.11 uM; for inhibition at 33.33 µM: CAPAN-1, Conc. 33.33 uM; for inhibition at 100 µM: CAPAN-1, Conc. 100.00 uM
Experimental: (§1) A three-day assay was conducted. A cell suspension was prepared. Cell density was counted by an automated cell counter and then diluted to the required density, according to seeding density. 50 μL cells were seeded into 384-well plate in growth medium according to the plate map. The cells were incubated at 37 °C, 5% CO2 overnight.
(§2) 200× compound solution in DMSO was prepared and diluted with growth medium to 26× final concentration by addition of 26 μL 200× compounds to 174 μL growth medium. Then 2 μL of diluted compound solution was added to cells and the cell was incubated at 37 °C, 5% CO2 for 72 h.
(§3) The assay plate was equilibrated to room temperature prior to measurement. 15 μL of CellTiter-Glo Reagent was added into each well and the contents were mixed for 2 min on an orbital shaker to induce cell lysis. The cells were incubated at room temperature for 60 min to stabilize luminescent signal. Luminescence was recorded on the Envision system.

[2] = system: MDA-MB-436 (a BRCA-1-mutated breast cancer cell line); experiment: Cell proliferation assay, three-day, CellTiter-Glo, MDA-MB-436; format: cell-based; conditions: for inhibition at 0.00508 µM: MDA-MB-436, MDA-MB-436, Conc. 0.00508 uM; for inhibition at 0.0152 µM: MDA-MB-436, MDA-MB-436, Conc. 0.0152 uM; for inhibition at 0.0457 µM: MDA-MB-436, MDA-MB-436, Conc. 0.0457 uM; for inhibition at 0.41 µM: MDA-MB-436, MDA-MB-436, Conc. 0.41 uM; for inhibition at 1.23 µM: MDA-MB-436, MDA-MB-436, Conc. 1.23 uM; for inhibition at 3.7 µM: MDA-MB-436, MDA-MB-436, Conc. 3.70 uM; for inhibition at 11.11 µM: MDA-MB-436, MDA-MB-436, Conc. 11.11 uM; for inhibition at 33.33 µM: MDA-MB-436, MDA-MB-436, Conc. 33.33 uM; for inhibition at 100 µM: MDA-MB-436, MDA-MB-436, Conc. 100.00 uM
Experimental: as §1, §2, §3

[3] = CAPAN-1, curve fit of Inh %, plate 1
[4] = Homo sapiens, replicate 1, read-out: Inh % 1
[5] = Homo sapiens, replicate 2, read-out: Inh % 2

CN[C@@H]1C[C@H]2O[C@@](C)([C@@H]1OC)n1c3ccccc3c3c4c(c5c6ccccc6n2c5c31)C(=O)NC4 [STS, reference compound]
pIC50 ([1]; CAPAN-1, 72 h, supplement Summary sheet, read-out: IC50): 7.19
Bottom [1, 3]: 8.442 and 8.44
HillSlope [1, 3]: 0.6137 and 0.61
Top [1, 3]: 105.1
pIC50 ([1]; CAPAN-1, curve fit, plate 1, read-out: IC50): 7.19

O=C(c1cc(Cc2n[nH]c(=O)c3ccccc23)ccc1F)N1CCN(C(=O)C2CC2)CC1 [pc2, Olaparib, reference compound]
CAPAN-1 IC50 (μM) ([1]; 72 h, CellTiter-Glo): low potency
LogIC50 ([1]; CAPAN-1, curve-fit output, concentration axis Log (uM)): 2.033
pIC50 ([1]; Homo sapiens, CAPAN-1, 72 h, CellTiter-Glo, read-out: CAPAN-1 IC50): < 4.00
inhibition at 0.00508 µM [1, 4]: 1.8%
inhibition at 0.00508 µM [1, 5]: -2%
inhibition at 0.0152 µM [1, 4]: 5.2%
inhibition at 0.0152 µM [1, 5]: -2.3%
inhibition at 0.0457 µM [1, 4]: -6.9%
inhibition at 0.0457 µM [1, 5]: 0.662%
inhibition at […] [1, 4]: 0.107%
inhibition at […] [1, 5]: 6.2%
inhibition at 0.41 µM [1, 4]: 4.3%
inhibition at 0.41 µM [1, 5]: 7.9%
inhibition at 1.23 µM [1, 4]: 15.1%
inhibition at 1.23 µM [1, 5]: 0.6%
inhibition at 3.7 µM [1, 4]: 21.3%
inhibition at 3.7 µM [1, 5]: 11.6%
inhibition at 11.11 µM [1, 4]: 18.6%
inhibition at 11.11 µM [1, 5]: 23.5%
inhibition at 33.33 µM [1, 4]: 38.5%
inhibition at 33.33 µM [1, 5]: 34.2%
inhibition at 100 µM [1, 4]: 48.2%
inhibition at 100 µM [1, 5]: 47.5%
inhibition at 0.00508 µM [2, 4]: 4.1%
inhibition at 0.00508 µM [2, 5]: -2.3%
inhibition at 0.0152 µM [2, 4]: 1.7%
inhibition at 0.0152 µM [2, 5]: -1.2%
inhibition at 0.0457 µM [2, 4]: -5.7%
inhibition at 0.0457 µM [2, 5]: -2.8%
inhibition at 0.41 µM [2, 4]: 0.181%
inhibition at 0.41 µM [2, 5]: 5.7%
inhibition at 1.23 µM [2, 4]: 4%
inhibition at 1.23 µM [2, 5]: 2%
inhibition at 3.7 µM [2, 4]: 12.4%
inhibition at 3.7 µM [2, 5]: 13.5%
inhibition at 11.11 µM [2, 4]: 23.3%
inhibition at 11.11 µM [2, 5]: 24.2%
inhibition at 33.33 µM [2, 4]: 50.1%
inhibition at 33.33 µM [2, 5]: 43.1%
inhibition at 100 µM [2, 4]: 92.4%
inhibition at 100 µM [2, 5]: 90.9%
pIC50 ([2]; Homo sapiens, MDA-MB-436, 72 h, CellTiter-Glo, read-out: MDA-MB-436 IC50): 4.52
pIC50 ([2]; Homo sapiens, MDA-MB-436, 72 h, supplement Summary sheet, read-out: IC50): 4.52
IC50 ([2]; Homo sapiens, MDA-MB-436, curve-fit parameter list, concentrations in uM, read-out: IC50): 30.2 µM
LogIC50 ([2]; MDA-MB-436, curve-fit parameter list, Log (uM)): 1.481
